Measured values reported in US20240358693A1, “METHODS OF TREATING PAIN” (Aisa Pharma, Inc., priority 2023, published 2024).

Tested on: participants with SSc-RP
Assay: Scleroderma Health Assessment Questionnaire (SHAQ): disability indices and visual analog scales
Type: in vivo, human
Conditions: Day 12
Source text: The standard, validated, patient reported outcome measures tool for SSc patients, the Scleroderma Health Assessment Questionnaire (SHAQ), will be used to assess the participant qualify of life. Details are attached in the Appendix. The participant quality of life will be scored, and a disability index calculated for each questionnaire completed by the patient at Screening and each in-clinic visit. The absolute change in participant quality of life from baseline to the end of each dosing period will be calculated similar to frequency data as before.
The SHAQ includes a Raynaud's VAS, which will be reported at screening and each in-clinic visit. The absolute change in Raynaud-VAS, assessed by the participants response to the SHAQ question ‘In the past 7 days, how much have your Raynaud's interfered with your daily activities?’ at baseline and the end of each dosing period will be calculated similar to frequency data as before.
The SHAQ is used to calculate a Disability Index to assess the participant qualify of life. The eight categories assessed by the Disability Index are 1) dressing and grooming, 2) arising, 3) eating, 4) walking, 5) hygiene, 6) reach, 7) grip, and 8) common daily activities. For each of these categories, patients report the amount of difficulty they have in performing two or three specific activities.
There are four possible responses for the Disability Index questions: • Without any difficulty=0 • With some difficulty=1 • With much difficulty=2 • Unable to do=3. • The highest score reported by the patient for any component question of the eight categories determines the score for that category. • If a component question is left blank or the response is too ambiguous to assign a score, then the score for that category is determined by the remaining completed question(s). • If all component questions are blank or if more than one answer is given, then follow up with the respondent is required. • If the respondent's mark is between the response columns, then move it to the closest one. If it's directly between the two, move it to the higher one.
Each of the disability items on the SHAQ has a companion aids/devices variable that is used to record what type(s) of assistance, if any, the participant uses for his/her usual activities. These variables (see below) are coded as follows: • 0=No assistance is needed. • 1=A special device is used by the patient in his/her usual activities. • 2=The patient usually needs help from another person. • 3=The patient usually needs BOTH a special device AND help from another person.
The scoring variables and scoring rules permit the computation of two disability indices, the Standard Disability Index and the Alternative Disability Index.
This question results in a new set of category scores that are computed by adjusting the score for each category, if necessary, based on the patient's use of an aid or device or assistance for that category. If either devices and/or help from another person are checked for a category, the score is set to “2”, unless the score is already “3” (i.e., scores of “0” or “1” are increased to “2”). For example, if the highest score for the dressing category is “1”, and the patient says they use a device for dressing, the computed category score would be “2”. The sum of the computed categories scores is then calculated and divided by the number of categories answered. This gives a score in the 0 to 3 range.
The aid and device variables are not used to calculate the alternative disability index; it is calculated by adding the scores for each of the categories and dividing by the number of categories answered. This gives a score in the 0 to 3 range.
The standard, validated, patient reported outcome measures tool for SSc patients, the SHAQ, was collected at the time points specified in the study schedules (FIG. 2 and FIGS. 4A and 4B) to assess the participant's quality of life. The SHAQ included a Raynaud's VAS that will also be reported separately.

[1] = Pooled Cilnidipine 20 mg and Cilnidipine 20 mg + Tadalafil 5 mg (N = 8), PP Population Part A
[2] = Pooled Cilnidipine (N = 8), PP Population Part A
[3] = mITT Part A, SSc patients, cilnidipine 10 mg and/or tadalafil 5 mg as in the arm

## COCCOC(=O)C1=C(C)NC(C)=C(C(=O)OC/C=C/c2ccccc2)C1c1cccc([N+](=O)[O-])c1 (stereo not shown) [Cilnidipine, cilnidipine]
[1]
  SHAQ Visual Analogue Scale - Pain, Change from Baseline, Median: −0.500
  SHAQ Visual Analogue Scale - Pain, Percent Change from Baseline, Mean: −25.85%
  SHAQ Visual Analogue Scale - Pain, Percent Change from Baseline, Median: −48.78%
  SHAQ Visual Analogue Scale - Raynaud's, Change from Baseline, Mean: −1.013
  SHAQ Visual Analogue Scale - Raynaud's, Change from Baseline, Median: −0.650
  SHAQ Visual Analogue Scale - Raynaud's, Percent Change from Baseline, Mean: −32.40%
  SHAQ Visual Analogue Scale - Raynaud's, Percent Change from Baseline, Median: −37.35%
[2]
  SHAQ Visual Analogue Scale - Breathing Problems, Change from Baseline, Mean: −0.388
  SHAQ Visual Analogue Scale - Breathing Problems, Change from Baseline, Median: 0.000
  SHAQ Visual Analogue Scale - Breathing Problems, Percent Change from Baseline, Mean: −0.22%
  SHAQ Visual Analogue Scale - Breathing Problems, Percent Change from Baseline, Median: −16.00%
  SHAQ Visual Analogue Scale - Finger Ulcers, Change from Baseline, Mean: −0.643
  SHAQ Visual Analogue Scale - Finger Ulcers, Change from Baseline, Median: 0.000
  SHAQ Visual Analogue Scale - Finger Ulcers, Percent Change from Baseline, Mean: −17.08%
  SHAQ Visual Analogue Scale - Finger Ulcers, Percent Change from Baseline, Median: −50.82%
  SHAQ Visual Analogue Scale - Intestinal Problems, Change from Baseline, Mean: −0.863
  SHAQ Visual Analogue Scale - Intestinal Problems, Change from Baseline, Median: −0.050
  SHAQ Visual Analogue Scale - Intestinal Problems, Percent Change from Baseline, Mean: −43.69%
  SHAQ Visual Analogue Scale - Intestinal Problems, Percent Change from Baseline, Median: −66.06%
  SHAQ Visual Analogue Scale - Overall Disease Severity, Change from Baseline, Mean: −1.450
  SHAQ Visual Analogue Scale - Overall Disease Severity, Change from Baseline, Median: −1.550
  SHAQ Visual Analogue Scale - Overall Disease Severity, Percent Change from Baseline, Mean: −61.10%
  SHAQ Visual Analogue Scale - Overall Disease Severity, Percent Change from Baseline, Median: −60.00%
  SHAQ Visual Analogue Scale - Pain, Change from Baseline, Mean: −0.375
  SHAQ Visual Analogue Scale - Pain, Change from Baseline, Median: −0.250
  SHAQ Visual Analogue Scale - Pain, Percent Change from Baseline, Mean: −23.98%
  SHAQ Visual Analogue Scale - Pain, Percent Change from Baseline, Median: −41.18%
  SHAQ Visual Analogue Scale - Raynaud's, Change from Baseline, Mean: −0.438
  SHAQ Visual Analogue Scale - Raynaud's, Change from Baseline, Median: −0.600
  SHAQ Visual Analogue Scale - Raynaud's, Percent Change from Baseline, Mean: −18.62%
  SHAQ Visual Analogue Scale - Raynaud's, Percent Change from Baseline, Median: −33.33%
[3]
  SHAQ Alternative Disability Index, Change from Baseline, Mean: 0.083
  SHAQ Alternative Disability Index, Change from Baseline, Median: 0.000
  SHAQ Alternative Disability Index, In-Clinic Visit (Day 12), Mean: 0.750
  SHAQ Alternative Disability Index, In-Clinic Visit (Day 12), Median: 1.000
  SHAQ Alternative Disability Index, Percent Change from Baseline, Mean: 15.87%
  SHAQ Alternative Disability Index, Percent Change from Baseline, Median: 15.87%
  SHAQ Visual Analogue Scale - Finger Ulcers, Change from Baseline, Mean: −0.567
  SHAQ Visual Analogue Scale - Finger Ulcers, Change from Baseline, Median: −0.700
  SHAQ Visual Analogue Scale - Finger Ulcers, In-Clinic Visit (Day 12), Mean: 0.367
  SHAQ Visual Analogue Scale - Finger Ulcers, In-Clinic Visit (Day 12), Median: 0.000
  SHAQ Visual Analogue Scale - Finger Ulcers, Percent Change from Baseline, Mean: −69.44%
  SHAQ Visual Analogue Scale - Finger Ulcers, Percent Change from Baseline, Median: −69.44%
  SHAQ Visual Analogue Scale - Intestinal Problems, Change from Baseline, Mean: −2.467
  SHAQ Visual Analogue Scale - Intestinal Problems, Change from Baseline, Median: −3.000
  SHAQ Visual Analogue Scale - Intestinal Problems, In-Clinic Visit (Day 12), Mean: 1.467
  SHAQ Visual Analogue Scale - Intestinal Problems, In-Clinic Visit (Day 12), Median: 0.600
  SHAQ Visual Analogue Scale - Intestinal Problems, Percent Change from Baseline, Mean: −66.06%
  SHAQ Visual Analogue Scale - Intestinal Problems, Percent Change from Baseline, Median: −66.06%
  SHAQ Visual Analogue Scale - Overall Disease Severity, Change from Baseline, Mean: −1.067
  SHAQ Visual Analogue Scale - Overall Disease Severity, Change from Baseline, Median: −1.500
  SHAQ Visual Analogue Scale - Overall Disease Severity, In-Clinic Visit (Day 12), Mean: 2.433
  SHAQ Visual Analogue Scale - Overall Disease Severity, In-Clinic Visit (Day 12), Median: 1.900
  SHAQ Visual Analogue Scale - Overall Disease Severity, Percent Change from Baseline, Mean: −35.44%
  SHAQ Visual Analogue Scale - Overall Disease Severity, Percent Change from Baseline, Median: −35.44%
  SHAQ Visual Analogue Scale - Pain, Change from Baseline, Mean: 0.100
  SHAQ Visual Analogue Scale - Pain, Change from Baseline, Median: 0.000
  SHAQ Visual Analogue Scale - Pain, In-Clinic Visit (Day 12), Mean: 2.167
  SHAQ Visual Analogue Scale - Pain, In-Clinic Visit (Day 12), Median: 2.900
  SHAQ Visual Analogue Scale - Pain, Percent Change from Baseline, Mean: 5.77%
  SHAQ Visual Analogue Scale - Pain, Percent Change from Baseline, Median: 5.77%
